Values after ≈ are worked out from the molar mass of the structure shown. Read-outs that look alike come from different tables or passages of the source.
Experiments:
Type in all cases: cell-based
[1] = tested on: ten randomly selected isolates of T. tonsurans; assay: Susceptibility of ten T. tonsurans isolates, broth microdilution NCCLS M38-P; conditions: for MIC: Trichophyton tonsurans
Protocol: (§1) Isolates were tested using the method described in the National Committee for Clinical Laboratory Standards (NCCLS) document M38-P for filamentous fungi, with dermatophyte specific modifications described by Fernández-Torres et al, Current topics in Medical Mycology, 14-19 Feb. 1999.
(§2) Five dermatophyte isolates were, namely; T. rubrum, T. mentagrophytes, T. tonsurans, M. canis and M. gypseum, all of which produce lipases and some, phospholipase. These isolates were tested by the broth microdilution method according to NCCLS document M38-P, for activity against selected antifungal agents. In addition, ten randomly selected isolates of T. tonsurans were also tested. All isolates were maintained on SDA at 28° C. Candida parapsilosis (ATCC 20019) was used as the reference control is organism.
(§3) The microdilution plates used were a single lot of RPMI 1640 basal medium (JRH bioScience Inc. Lenexa, Kans., USA) with L-glutamine and without sodium bicarbonate, buffered to pH 7.0, at 25° C., with 0.165 M (MOPS) morpholinepropanesulfonic acid (Sigma).
(§4) Powdered drugs were dissolved in 100% dimethyl sulfoxide (DMSO), at concentrations 100 times higher than the final test concentration. All compounds were prepared in 100% (DMSO). For ITRA and TRB, two-fold drug dilutions were prepared in 100% DMSO at 100 times the final concentration, followed by further dilution 1:50 in RPMI medium, to yield 2× the final strength required for the test.
(§5) Fungal cultures were subcultured onto Potato Dextrose Agar and grown at 28° C. for 7-10 days. Fungal suspensions were covered with 5 ml of distilled water, and then colonies were scraped off with cotton tipped swabs. The resulting mixture of conidia and hyphae elements was withdrawn, transferred to a sterile tube and then vortexed with glass beads. After the particles settled, the upper homogeneous suspension was collected and its density adjusted by a densitometer to a 0.5 McFarland standard at the wavelength of 530 nm (80-85% transmittance). These stock suspensions were then diluted 1:50 with RPMI medium to obtain final working inoculum concentration ranging from 0.3×10^4 to 9×10^4 CFU/ml. Inoculum quantification was performed by plating 100 μl of the 1:1000 dilution of the adjusted inoculum on SDA plates, incubated at 28° C., and after 7 days of incubation, the colonies were counted.
(§6) Testing was based on NCCLS M38-P document for testing filamentous moulds. Testing was carried out in sterile 96-well flat bottomed microtitre plate. Columns 1 and 3 to 12 were filled with 100 μl of RPMI medium, leaving column 2 unfilled. Columns 1, 2 and 3 were filled with 100 μl of 2× drug concentration. Serial dilutions were then made by transferring 100 μl from column 3 to each column up to column 11, and 100 μl from column 11 was discarded. Column 12 served as drug free growth control. Finally, 100 μl of inoculum suspension was added to all wells except column 1, which acted as sterility control (Columns 1 and 12 served as sterility and growth control respectively). Plates were incubated at 28° C. for 7 days, and read at 3 days and 7 days of incubation. All testing was performed in duplicate, on three separate occasions.
(§7) Growth in microtitre trays were read by visual inspection by using an illuminated-reversed mirror. Growth in each well was compared with the “growth control” drug free well. The MIC end point for all the drugs was chosen to be the first well with 100% growth inhibition (i.e. the lowest drug concentration inhibiting growth).

[2] = tested on: M. gypseum; assay: Susceptibility of dermatophytes, broth microdilution NCCLS M38-P; conditions: for MIC: Nannizzia gypsea
Protocol: as §1, §2, §3, §4, §5, §6, §7

[3] = tested on: T. rubrum; assay: as above; conditions: for MIC: Trichophyton rubrum
Protocol: as §1, §2, §3, §4, §5, §6, §7

[4] = tested on: M. canis; assay: as above; conditions: for MIC: Microsporum canis
Protocol: as §1, §2, §3, §4, §5, §6, §7

[5] = tested on: T. mentagrophytes; assay: as above; conditions: 100% growth inhibition, 28° C.; for MIC: Trichophyton mentagrophytes
Protocol: as §1, §2, §3, §4, §5, §6, §7

[6] = tested on: T. tonsurans; assay: as above; conditions: for MIC: Trichophyton tonsurans
Protocol: as §1, §2, §3, §4, §5, §6, §7

[7] = T. tonsurans 1, read-out: MIC GM
[8] = T. tonsurans 2, read-out: MIC GM
[9] = T. tonsurans 2, read-out: MIC Mean
[10] = T. tonsurans 4, read-out: MIC Mean
[11] = T. tonsurans 5, read-out: MIC GM
[12] = T. tonsurans 5, read-out: MIC Mean
[13] = T. tonsurans 6, read-out: MIC GM
[14] = T. tonsurans 6, read-out: MIC Mean
[15] = T. tonsurans 7, read-out: MIC GM
[16] = T. tonsurans 7, read-out: MIC Mean
[17] = T. tonsurans 8, read-out: MIC GM
[18] = T. tonsurans 8, read-out: MIC Mean
[19] = T. tonsurans 9, read-out: MIC GM
[20] = T. tonsurans 9, read-out: MIC Mean
[21] = T. tonsurans 10, read-out: MIC Mean
[22] = T.tonsurans 3, read-out: MIC GM
[23] = T.tonsurans 3, read-out: MIC Mean
[24] = read-out: MIC Mean, T. tonsurans 1
[25] = 100% growth inhibition, 28° C., read-out: MIC GM, M. gypseum
[26] = 100% growth inhibition, 28° C., read-out: MIC Mean, M. gypseum
[27] = 100% growth inhibition, 28° C., read-out: MIC GM, T. rubrum
[28] = 100% growth inhibition, 28° C., read-out: MIC Mean, T. rubrum
[29] = 100% growth inhibition, 28° C., read-out: MIC GM, M. canis
[30] = 100% growth inhibition, 28° C., read-out: MIC Mean, M. canis
[31] = read-out: MIC GM, T. mentagrophyte
[32] = read-out: MIC Mean, T. mentagrophyte
[33] = 100% growth inhibition, 28° C., read-out: MIC GM, T. tonsurans
[34] = 100% growth inhibition, 28° C., read-out: MIC Mean, T. tonsurans

For `CCC(C)n1ncn(-c2ccc(N3CCN(c4ccc(OCC5COC(Cn6cncn6)(c6ccc(Cl)cc6Cl)O5)cc4)CC3)cc2)c1=O` (centres unmarked) [Itraconazole], the “MIC Range” value ([1]; T. tonsurans 1) was 0.03 to 0.125 µg/mL, the “MIC Range” value ([1]; T. tonsurans 2) was 0.125 to 2.0 µg/mL and the “MIC Range” value ([1]; T. tonsurans 4) was 0.5 µg/mL (≈ 0.709 µM). The “MIC Range” value ([1]; T. tonsurans 5) was 0.25 to 0.5 µg/mL, the “MIC Range” value ([1]; T. tonsurans 6) was 0.25 to 2.0 µg/mL and the “MIC Range” value ([1]; T. tonsurans 7) was 0.5 to 1.0 µg/mL. For the same compound, the “MIC Range” value ([1]; T. tonsurans 8) was 0.25 to 2.0 µg/mL, the “MIC Range” value ([1]; T. tonsurans 9) was 0.125 to 1.0 µg/mL and the “MIC Range” value ([1]; T. tonsurans 10) was 0.25 to 1.0 µg/mL. The “MIC Range” value ([1]; T.tonsurans 3) was 0.06 to 0.5 µg/mL, the MIC [1, 7] was 0.12 µg/mL (≈ 0.17 µM) and the MIC [1, 8] was 0.397 µg/mL (≈ 0.563 µM). The MIC [1, 9] was 0.604 µg/mL (≈ 0.856 µM), the MIC ([1]; T. tonsurans 4, read-out: MIC GM) was 0.5 µg/mL (≈ 0.709 µM) and the MIC [1, 10] was 0.5 µg/mL (≈ 0.709 µM). For the same compound, the MIC [1, 11] was 0.44 µg/mL (≈ 0.624 µM), the MIC [1, 12] was 0.46 µg/mL (≈ 0.652 µM) and the MIC [1, 13] was 0.71 µg/mL (≈ 1.01 µM). The MIC [1, 14] was 0.96 µg/mL (≈ 1.36 µM), the MIC [1, 15] was 0.56 µg/mL (≈ 0.794 µM) and the MIC [1, 16] was 0.58 µg/mL (≈ 0.822 µM). For the same compound, the MIC [1, 17] was 0.79 µg/mL (≈ 1.12 µM), the MIC [1, 18] was 1.08 µg/mL (≈ 1.53 µM) and the MIC [1, 19] was 0.445 µg/mL (≈ 0.631 µM). For the same compound, the MIC [1, 20] was 0.52 µg/mL (≈ 0.737 µM), the MIC ([1]; T. tonsurans 10, read-out: MIC GM) was 0.445 µg/mL (≈ 0.631 µM) and the MIC [1, 21] was 0.5 µg/mL (≈ 0.709 µM). It also gave an MIC [1, 22] of 0.196 µg/mL (≈ 0.278 µM), an MIC [1, 23] of 0.27 µg/mL (≈ 0.383 µM) and an MIC [1, 24] of 0.21 µg/mL (≈ 0.298 µM). For the same compound, the “MIC Range, M. gypseum” value ([2]; 100% growth inhibition, 28° C.) was 0.25 to 2.0 µg/mL, the MIC [2, 25] was 0.74 µg/mL (≈ 1.05 µM) and the MIC [2, 26] was 0.93 µg/mL (≈ 1.32 µM). For the same compound, the MIC ([2]; Table 9, read-out: MIC M. gypseum) was 0.9 µg/mL (≈ 1.28 µM), the “MIC Range, T. rubrum” value ([3]; 100% growth inhibition, 28° C.) was 0.03 to 1.0 µg/mL and the MIC [3, 27] was 0.171 µg/mL (≈ 0.242 µM). For the same compound, the MIC [3, 28] was 0.276 µg/mL (≈ 0.391 µM), the MIC ([3]; Table 9, read-out: MIC T. rubrum) was 0.3 µg/mL (≈ 0.425 µM) and the “MIC Range, M. canis” value ([4]; 100% growth inhibition, 28° C.) was 0.125 to 2.0 µg/mL. The MIC [4, 29] was 0.42 µg/mL (≈ 0.595 µM), the MIC [4, 30] was 0.63 µg/mL (≈ 0.893 µM) and the MIC ([4]; Table 9, read-out: MIC M. canis) was 0.6 µg/mL (≈ 0.85 µM). The “MIC Range, T. mentagrophyte” value [5] was 0.06 to 1.0 µg/mL, the MIC [5, 31] was 0.26 µg/mL (≈ 0.368 µM) and the MIC [5, 32] was 0.355 µg/mL (≈ 0.503 µM). The “MIC Range, T. tonsurans” value ([6]; 100% growth inhibition, 28° C.) was 0.25 to 2.0 µg/mL, the MIC [6, 33] was 0.84 µg/mL (≈ 1.19 µM) and the MIC [6, 34] was 1.06 µg/mL (≈ 1.5 µM). For the same compound, the MIC ([6]; Table 9, read-out: MIC T. tonsurans) was 1.1 µg/mL (≈ 1.56 µM).

For `CN(C/C=C/C#CC(C)(C)C)Cc1cccc2ccccc12` [Terbinafine], the “MIC Range” value ([1]; T. tonsurans 1) was 0.015 to 0.06 µg/mL, the “MIC Range” value ([1]; T. tonsurans 2) was 0.015 to 0.06 µg/mL and the “MIC Range” value ([1]; T. tonsurans 4) was 0.015 to 0.06 µg/mL. For the same compound, the “MIC Range” value ([1]; T. tonsurans 5) was 0.03 to 0.06 µg/mL, the “MIC Range” value ([1]; T. tonsurans 6) was 0.03 to 0.125 µg/mL and the “MIC Range” value ([1]; T. tonsurans 7) was 0.015 to 0.06 µg/mL. For the same compound, the “MIC Range” value ([1]; T. tonsurans 8) was 0.06 to 0.125 µg/mL, the “MIC Range” value ([1]; T. tonsurans 9) was 0.06 to 0.125 µg/mL and the “MIC Range” value ([1]; T. tonsurans 10) was 0.015 to 0.06 µg/mL. For the same compound, the “MIC Range” value ([1]; T.tonsurans 3) was 0.015 to 0.125 µg/mL, the MIC [1, 7] was 0.034 µg/mL (≈ 0.117 µM) and the MIC [1, 8] was 0.036 µg/mL (≈ 0.124 µM). It also gave an MIC [1, 9] of 0.041 µg/mL (≈ 0.141 µM), an MIC [1, 10] of 0.0275 µg/mL (≈ 0.0944 µM) and an MIC [1, 11] of 0.048 µg/mL (≈ 0.165 µM). For the same compound, the MIC [1, 12] was 0.05 µg/mL (≈ 0.172 µM), the MIC [1, 13] was 0.061 µg/mL (≈ 0.209 µM) and the MIC [1, 14] was 0.071 µg/mL (≈ 0.244 µM). The MIC [1, 15] was 0.038 µg/mL (≈ 0.13 µM), the MIC [1, 16] was 0.045 µg/mL (≈ 0.154 µM) and the MIC [1, 17] was 0.068 µg/mL (≈ 0.233 µM). For the same compound, the MIC [1, 18] was 0.07 µg/mL (≈ 0.24 µM), the MIC [1, 19] was 0.077 µg/mL (≈ 0.264 µM) and the MIC [1, 20] was 0.081 µg/mL (≈ 0.278 µM). It also gave an MIC [1, 21] of 0.035 µg/mL (≈ 0.12 µM), an MIC [1, 22] of 0.038 µg/mL (≈ 0.13 µM) and an MIC [1, 23] of 0.051 µg/mL (≈ 0.175 µM). For the same compound, the MIC [1, 24] was 0.037 µg/mL (≈ 0.127 µM), the “MIC Range, M. gypseum” value ([2]; 100% growth inhibition, 28° C.) was 0.015 to 0.25 µg/mL and the MIC [2, 25] was 0.077 µg/mL (≈ 0.264 µM). For the same compound, the MIC [2, 26] was 0.122 µg/mL (≈ 0.419 µM), the “MIC Range, T. rubrum” value ([3]; 100% growth inhibition, 28° C.) was 0.007 to 0.06 µg/mL and the MIC [3, 27] was 0.026 µg/mL (≈ 0.0892 µM). For the same compound, the MIC [3, 28] was 0.032 µg/mL (≈ 0.11 µM), the “MIC Range, M. canis” value ([4]; 100% growth inhibition, 28° C.) was 0.03 µg/mL (≈ 0.103 µM) and the MIC [4, 29] was 0.03 µg/mL (≈ 0.103 µM). For the same compound, the MIC [4, 30] was 0.03 µg/mL (≈ 0.103 µM), the “MIC Range, T. mentagrophyte” value [5] was 0.03 to 0.06 µg/mL and the MIC [5, 31] was 0.034 µg/mL (≈ 0.117 µM). The MIC [5, 32] was 0.035 µg/mL (≈ 0.12 µM), the “MIC Range, T. tonsurans” value ([6]; 100% growth inhibition, 28° C.) was 0.015 to 0.06 µg/mL and the MIC [6, 33] was 0.024 µg/mL (≈ 0.0824 µM). The MIC [6, 34] was 0.03 µg/mL (≈ 0.103 µM).
